# According to PMC10461478, “The chemical profiling of Salvia plebeia during different growth periods and the biosynthesis of its main flavonoids ingredients” (Frontiers in Plant Science, 2023):
# Experiments:
# [1] = biological target: T1, SpCHS1 (Salvia plebeia, UniProt A0AA50A905); assay: HPLC-DAD / UPLC-Q-TOF-MS of E. coli culture extract; assay type: cell-based; details: substrate formed in situ by co-expressed RtTAL and Pt4CL from fed tyrosine; product naringenin chalcone
# T1 construct: gene CHS1; ORF in pET28a, co-expressed in E. coli with RtTAL and Pt4CL (substrate supply)
# T1 sequence (A0AA50A905 1-390): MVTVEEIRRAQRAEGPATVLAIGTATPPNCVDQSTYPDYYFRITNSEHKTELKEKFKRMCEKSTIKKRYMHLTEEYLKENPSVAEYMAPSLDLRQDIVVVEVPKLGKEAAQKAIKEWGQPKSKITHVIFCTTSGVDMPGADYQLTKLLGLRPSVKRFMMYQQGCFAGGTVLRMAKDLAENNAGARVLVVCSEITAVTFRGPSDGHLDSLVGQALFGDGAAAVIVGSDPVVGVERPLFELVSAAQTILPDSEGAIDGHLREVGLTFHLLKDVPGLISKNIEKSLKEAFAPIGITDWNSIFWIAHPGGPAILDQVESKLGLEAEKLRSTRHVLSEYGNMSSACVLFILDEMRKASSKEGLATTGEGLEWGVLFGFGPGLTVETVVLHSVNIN
# [2] = biological target: T2, SpF6H1 (Salvia plebeia, UniProt A0AA49X7K6); assay: HPLC-DAD / UPLC-Q-TOF-MS product detection; assay type: biochemical; details: 1 mM NADPH, 0.5 mM GSH, 100 mM Tris-HCl, 28 °C, 12 h; AtCPR co-expressed; product scutellarein
# T2 construct: gene F6H1; ORF in pET32a (Trx/His tag), E. coli; co-expressed with AtCPR; with NADPH--cytochrome P450 reductase (Arabidopsis thaliana)
# T2 sequence (A0AA49X7K6 1-521): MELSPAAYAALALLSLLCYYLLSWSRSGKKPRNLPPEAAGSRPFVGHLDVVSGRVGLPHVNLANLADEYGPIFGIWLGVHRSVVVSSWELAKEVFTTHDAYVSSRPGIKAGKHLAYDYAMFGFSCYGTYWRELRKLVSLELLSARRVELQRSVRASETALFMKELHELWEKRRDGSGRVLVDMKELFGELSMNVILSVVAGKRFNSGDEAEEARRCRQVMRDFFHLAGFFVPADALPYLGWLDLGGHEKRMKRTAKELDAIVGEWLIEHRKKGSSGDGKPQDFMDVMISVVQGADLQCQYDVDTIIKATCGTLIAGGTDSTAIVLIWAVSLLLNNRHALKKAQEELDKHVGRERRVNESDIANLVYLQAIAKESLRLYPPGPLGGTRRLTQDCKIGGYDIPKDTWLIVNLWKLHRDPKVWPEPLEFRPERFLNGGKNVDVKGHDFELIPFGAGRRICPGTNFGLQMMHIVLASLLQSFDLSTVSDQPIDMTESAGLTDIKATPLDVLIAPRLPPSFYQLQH
# [3] = biological target: T3, SpC4H (Salvia plebeia, UniProt A0AA50AF12); assay: HPLC-DAD / UPLC-Q-TOF-MS product detection; assay type: biochemical; details: 1 mM NADPH, 0.5 mM GSH, AtCPR added, 100 mM Tris-HCl, 28 °C, 12 h; product 4-coumaric acid
# T3 construct: gene C4H; ORF in pET32a (Trx/His tag), E. coli BL21(DE3), Ni-NTA purified; AtCPR added; with NADPH--cytochrome P450 reductase (Arabidopsis thaliana)
# [4] = biological target: T4, SpUGT3 (Salvia plebeia, UniProt A0AA49X848); assay: HPLC-DAD / UPLC-Q-TOF-MS product detection; assay type: biochemical; details: 1 mM UDP-glucose, 50 mM PBS, 30 °C, 4 h; product homoplantaginin
# T4 construct: gene UGT3; ORF in pSJ8-MBP (MBP fusion), E. coli BL21(DE3), Ni-NTA purified
# T4 sequence (A0AA49X848 1-469): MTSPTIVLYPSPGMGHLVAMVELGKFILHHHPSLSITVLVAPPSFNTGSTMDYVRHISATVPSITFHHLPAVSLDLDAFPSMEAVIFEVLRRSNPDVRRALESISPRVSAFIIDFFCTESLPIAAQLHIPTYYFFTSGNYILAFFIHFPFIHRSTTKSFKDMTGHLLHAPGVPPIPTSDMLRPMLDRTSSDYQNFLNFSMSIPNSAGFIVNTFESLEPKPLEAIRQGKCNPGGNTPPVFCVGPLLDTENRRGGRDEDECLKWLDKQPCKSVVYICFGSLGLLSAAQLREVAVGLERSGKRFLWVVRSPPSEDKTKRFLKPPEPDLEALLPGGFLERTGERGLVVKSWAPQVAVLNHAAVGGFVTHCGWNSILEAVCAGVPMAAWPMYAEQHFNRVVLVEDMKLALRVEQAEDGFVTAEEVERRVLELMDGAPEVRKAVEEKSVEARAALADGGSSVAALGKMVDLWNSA
# [5] = biological target: T5, SpUGT2 (Salvia plebeia, UniProt A0AA49XCW5); assay: HPLC-DAD / UPLC-Q-TOF-MS product detection; assay type: biochemical; details: 1 mM UDP-glucose, 50 mM PBS, 30 °C, 4 h; product homoplantaginin
# T5 construct: gene UGT2; ORF in pSJ8-MBP (MBP fusion), E. coli BL21(DE3), Ni-NTA purified
# T5 sequence (A0AA49XCW5 1-478): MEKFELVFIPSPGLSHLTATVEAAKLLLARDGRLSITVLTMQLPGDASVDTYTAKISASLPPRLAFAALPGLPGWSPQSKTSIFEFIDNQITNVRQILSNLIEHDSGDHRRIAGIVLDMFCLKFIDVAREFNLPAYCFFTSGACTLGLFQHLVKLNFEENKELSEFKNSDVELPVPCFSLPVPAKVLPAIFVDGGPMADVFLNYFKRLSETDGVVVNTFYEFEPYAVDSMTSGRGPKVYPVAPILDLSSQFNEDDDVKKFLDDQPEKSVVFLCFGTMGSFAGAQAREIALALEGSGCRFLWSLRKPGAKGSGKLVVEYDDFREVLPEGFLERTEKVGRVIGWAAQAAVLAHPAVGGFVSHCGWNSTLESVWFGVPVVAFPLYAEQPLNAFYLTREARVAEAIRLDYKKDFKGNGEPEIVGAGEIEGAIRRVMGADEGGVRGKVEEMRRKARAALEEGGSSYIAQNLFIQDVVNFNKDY
# [6] = biological target: T6, SpUGT1 (Salvia plebeia, UniProt A0AA49X7M2); assay: HPLC-DAD / UPLC-Q-TOF-MS product detection; assay type: biochemical; details: 1 mM UDP-glucose, 50 mM PBS, 30 °C, 4 h; product homoplantaginin
# T6 construct: gene UGT1; ORF in pSJ8-MBP (MBP fusion), E. coli BL21(DE3), Ni-NTA purified
# T6 sequence (A0AA49X7M2 1-450): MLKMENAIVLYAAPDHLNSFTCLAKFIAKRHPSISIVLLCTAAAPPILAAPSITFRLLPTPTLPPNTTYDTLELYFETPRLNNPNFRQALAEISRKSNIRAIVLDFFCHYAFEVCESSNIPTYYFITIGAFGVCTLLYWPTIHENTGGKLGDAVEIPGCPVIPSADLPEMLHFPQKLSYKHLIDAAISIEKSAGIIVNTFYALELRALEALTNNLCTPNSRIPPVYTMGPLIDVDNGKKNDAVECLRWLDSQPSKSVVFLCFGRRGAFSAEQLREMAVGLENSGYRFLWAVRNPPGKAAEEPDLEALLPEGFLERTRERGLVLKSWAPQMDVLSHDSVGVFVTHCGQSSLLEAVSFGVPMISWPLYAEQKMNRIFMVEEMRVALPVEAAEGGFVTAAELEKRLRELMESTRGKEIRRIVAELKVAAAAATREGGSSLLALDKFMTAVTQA
# [7] = biological target: T7, SpCHI (Salvia plebeia, UniProt A0AA49X7E2); assay: HPLC-DAD / UPLC-Q-TOF-MS product detection; assay type: biochemical; details: 100 mM PBS, 25 °C, 2 s; product naringenin
# T7 construct: gene CHI; full ORF in pET28a (His tag), E. coli BL21(DE3), Ni-NTA purified
# T7 sequence (A0AA49X7E2 1-225): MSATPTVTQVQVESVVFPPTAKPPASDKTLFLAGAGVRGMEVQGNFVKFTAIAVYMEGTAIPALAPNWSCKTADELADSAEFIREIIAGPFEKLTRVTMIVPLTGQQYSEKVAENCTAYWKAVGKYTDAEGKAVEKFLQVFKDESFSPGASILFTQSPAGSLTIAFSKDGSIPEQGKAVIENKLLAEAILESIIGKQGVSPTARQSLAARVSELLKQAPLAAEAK
# [8] = biological target: T8, SpFNS (Salvia plebeia, UniProt A0AA49X7D7); assay: HPLC-DAD / UPLC-Q-TOF-MS product detection; assay type: biochemical; details: 1 mM NADPH, 0.5 mM GSH, 100 mM Tris-HCl, 28 °C, 12 h; AtCPR co-expressed; product apigenin
# T8 construct: gene FNS
# [9] = biological target: T9, SpPAL (Salvia plebeia, UniProt A0AA50AET4); assay: HPLC-DAD / UPLC-Q-TOF-MS product detection; assay type: biochemical; details: 100 mM Tris-HCl, 37 °C, 8 h; product cinnamic acid
# T9 construct: gene PAL; full ORF in pET28a (His tag), E. coli BL21(DE3), Ni-NTA purified
# [10] = biological target: T10, SpF6OMT2 (Salvia plebeia, UniProt A0AA49X7F5); assay: HPLC-DAD / UPLC-Q-TOF-MS product detection; assay type: biochemical; details: 1 mM SAM, 1 mM MgCl2, 1 mM DTT, 100 mM Tris-HCl, 28 °C, 12 h; product hispidulin
# T10 construct: gene F6OMT2; full ORF in pET28a (His tag), E. coli BL21(DE3), Ni-NTA purified
# [11] = biological target: T11, SpF6OMT1 (Salvia plebeia, UniProt A0AA49X7D9); assay: HPLC-DAD / UPLC-Q-TOF-MS product detection; assay type: biochemical; details: 1 mM SAM, 1 mM MgCl2, 1 mM DTT, 100 mM Tris-HCl, 28 °C, 12 h; product hispidulin
# T11 construct: gene F6OMT1; full ORF in pET28a (His tag), E. coli BL21(DE3), Ni-NTA purified
# T11 sequence (A0AA49X7D9 1-222): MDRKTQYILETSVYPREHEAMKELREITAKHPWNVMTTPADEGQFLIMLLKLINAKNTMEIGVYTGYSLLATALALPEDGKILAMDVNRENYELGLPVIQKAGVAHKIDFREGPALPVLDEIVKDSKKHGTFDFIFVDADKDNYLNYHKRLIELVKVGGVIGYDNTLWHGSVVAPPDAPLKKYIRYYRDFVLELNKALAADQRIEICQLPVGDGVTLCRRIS
# T9 sequence (A0AA50AET4 1-710): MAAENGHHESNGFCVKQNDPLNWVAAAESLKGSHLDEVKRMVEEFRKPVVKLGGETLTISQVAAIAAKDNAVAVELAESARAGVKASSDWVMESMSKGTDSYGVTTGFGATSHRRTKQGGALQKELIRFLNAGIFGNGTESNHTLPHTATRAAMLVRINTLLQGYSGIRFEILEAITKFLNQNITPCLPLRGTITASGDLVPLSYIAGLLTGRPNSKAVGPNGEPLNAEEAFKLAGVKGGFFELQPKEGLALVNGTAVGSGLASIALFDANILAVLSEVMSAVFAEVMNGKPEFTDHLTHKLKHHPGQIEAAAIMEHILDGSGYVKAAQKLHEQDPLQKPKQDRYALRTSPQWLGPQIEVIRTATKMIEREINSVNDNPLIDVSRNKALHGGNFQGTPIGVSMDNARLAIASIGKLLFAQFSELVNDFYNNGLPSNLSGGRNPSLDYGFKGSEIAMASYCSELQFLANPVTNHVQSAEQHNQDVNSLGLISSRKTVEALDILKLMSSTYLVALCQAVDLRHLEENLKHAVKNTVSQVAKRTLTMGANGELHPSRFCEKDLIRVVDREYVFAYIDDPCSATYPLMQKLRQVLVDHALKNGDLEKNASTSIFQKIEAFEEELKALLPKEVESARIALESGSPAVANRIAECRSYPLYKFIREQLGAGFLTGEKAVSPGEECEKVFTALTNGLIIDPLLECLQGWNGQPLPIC
# T10 sequence (A0AA49X7F5 1-247): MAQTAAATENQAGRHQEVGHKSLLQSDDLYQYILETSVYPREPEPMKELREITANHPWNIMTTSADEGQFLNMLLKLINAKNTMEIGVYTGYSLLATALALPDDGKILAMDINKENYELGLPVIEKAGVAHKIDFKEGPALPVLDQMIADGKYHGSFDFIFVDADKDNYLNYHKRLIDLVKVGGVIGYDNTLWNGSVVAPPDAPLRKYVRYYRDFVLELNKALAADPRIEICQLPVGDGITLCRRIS
# T8 sequence (A0AA49X7D7 1-507): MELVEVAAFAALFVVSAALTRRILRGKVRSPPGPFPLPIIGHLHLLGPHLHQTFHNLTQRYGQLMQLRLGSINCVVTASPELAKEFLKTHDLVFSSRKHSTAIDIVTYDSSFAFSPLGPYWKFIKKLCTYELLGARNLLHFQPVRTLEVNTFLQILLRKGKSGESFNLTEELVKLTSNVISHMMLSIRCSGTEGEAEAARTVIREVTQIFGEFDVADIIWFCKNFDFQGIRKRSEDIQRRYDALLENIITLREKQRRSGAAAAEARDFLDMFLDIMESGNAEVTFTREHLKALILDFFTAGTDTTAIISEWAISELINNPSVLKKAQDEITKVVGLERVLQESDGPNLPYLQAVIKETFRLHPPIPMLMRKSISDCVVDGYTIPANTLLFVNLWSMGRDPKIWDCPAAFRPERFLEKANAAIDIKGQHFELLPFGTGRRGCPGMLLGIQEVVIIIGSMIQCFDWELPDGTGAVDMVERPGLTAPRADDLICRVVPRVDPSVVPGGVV
# T3 sequence (A0AA50AF12 entry or part of it): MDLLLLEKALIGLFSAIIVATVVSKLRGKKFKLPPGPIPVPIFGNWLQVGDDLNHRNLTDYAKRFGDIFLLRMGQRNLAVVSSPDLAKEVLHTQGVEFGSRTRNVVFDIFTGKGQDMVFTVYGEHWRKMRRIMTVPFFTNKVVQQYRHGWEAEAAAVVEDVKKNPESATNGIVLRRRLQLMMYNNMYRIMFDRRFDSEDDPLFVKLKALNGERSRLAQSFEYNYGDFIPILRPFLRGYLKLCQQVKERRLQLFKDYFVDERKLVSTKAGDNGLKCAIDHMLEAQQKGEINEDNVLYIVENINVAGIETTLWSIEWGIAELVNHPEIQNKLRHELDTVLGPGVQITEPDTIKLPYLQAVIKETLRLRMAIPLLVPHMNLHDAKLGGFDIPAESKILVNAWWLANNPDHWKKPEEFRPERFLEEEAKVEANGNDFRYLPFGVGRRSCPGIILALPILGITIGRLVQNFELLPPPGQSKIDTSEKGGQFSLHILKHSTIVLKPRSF
smiles,measurement,setting,value
CC(C)(COP(=O)(O)OP(=O)(O)OC[C@H]1O[C@@H](n2cnc3c(N)ncnc32)[C@H](O)[C@@H]1OP(=O)(O)O)[C@@H](O)C(=O)NCCC(=O)NCCSC(=O)/C=C/c1ccc(O)cc1 [4-coumaryl-CoA],HPLC-DAD / UPLC-Q-TOF-MS of E. coli culture extract,[1],providing a sufficient substrate for the catalytic reaction of SpCHS
"O=c1cc(-c2ccc(O)cc2)oc2cc(O)cc(O)c12 [AG, apigenin]",HPLC-DAD / UPLC-Q-TOF-MS product detection,[2],"SpF6H1 produced scutellarein from apigenin, a precursor of hispidulin"
"O=C(O)/C=C/c1ccccc1 [CiA, cinnamic acid]",HPLC-DAD / UPLC-Q-TOF-MS product detection,[3],SpC4H was able to catalyze the production of 4-coumaric acid from cinnamic acid
"COc1c(O)cc2oc(-c3ccc(O)cc3)cc(=O)c2c1O [HD, hispidulin]",HPLC-DAD / UPLC-Q-TOF-MS product detection,[4],"SpUGT1, SpUGT2, and SpUGT3 produced homoplantaginin from hispidulin in vitro"
same,HPLC-DAD / UPLC-Q-TOF-MS product detection,[5],"SpUGT1, SpUGT2, and SpUGT3 produced homoplantaginin from hispidulin in vitro"
same,HPLC-DAD / UPLC-Q-TOF-MS product detection,[6],"SpUGT1, SpUGT2, and SpUGT3 produced homoplantaginin from hispidulin in vitro"
"O=C(/C=C/c1ccc(O)cc1)c1c(O)cc(O)cc1O [NC, naringenin chalcone]",HPLC-DAD / UPLC-Q-TOF-MS product detection,[7],naringenin chalcone was completely consumed in the sample group to generate naringenin
"O=C1C[C@@H](c2ccc(O)cc2)Oc2cc(O)cc(O)c21 [NG, naringenin]",HPLC-DAD / UPLC-Q-TOF-MS product detection,[8],SpFNS produced apigenin from naringenin
"N[C@@H](Cc1ccccc1)C(=O)O [Phe, phenylalanine]",HPLC-DAD / UPLC-Q-TOF-MS product detection,[9],SpPAL can catalyze the formation of cinnamic acid from phenylalanine
"O=c1cc(-c2ccc(O)cc2)oc2cc(O)c(O)c(O)c12 [SA, scutellarein]",HPLC-DAD / UPLC-Q-TOF-MS product detection,[10],SpF6OMT1 and SpF6OMT2 converted scutellarein into hispidulin
same,HPLC-DAD / UPLC-Q-TOF-MS product detection,[11],SpF6OMT1 and SpF6OMT2 converted scutellarein into hispidulin
